Source: ChEMBL document CHEMBL1141614, “Selective COX-2 inhibitors. Part 2: synthesis and biological evaluation of 4-benzylideneamino- and 4-phenyliminomethyl-benzenesulfonamides” (Bioorg Med Chem, 2008)
pIC50: −log10 of the molar value.

Experiments:
[1] = biological target: T1, Prostaglandin G/H synthase 2 (Homo sapiens, UniProt P35354); experiment: Inhibition of COX2 in human whole blood assessed as effect on LPS-stimulated PGE2 production
T1 sequence (P35354 whole entry): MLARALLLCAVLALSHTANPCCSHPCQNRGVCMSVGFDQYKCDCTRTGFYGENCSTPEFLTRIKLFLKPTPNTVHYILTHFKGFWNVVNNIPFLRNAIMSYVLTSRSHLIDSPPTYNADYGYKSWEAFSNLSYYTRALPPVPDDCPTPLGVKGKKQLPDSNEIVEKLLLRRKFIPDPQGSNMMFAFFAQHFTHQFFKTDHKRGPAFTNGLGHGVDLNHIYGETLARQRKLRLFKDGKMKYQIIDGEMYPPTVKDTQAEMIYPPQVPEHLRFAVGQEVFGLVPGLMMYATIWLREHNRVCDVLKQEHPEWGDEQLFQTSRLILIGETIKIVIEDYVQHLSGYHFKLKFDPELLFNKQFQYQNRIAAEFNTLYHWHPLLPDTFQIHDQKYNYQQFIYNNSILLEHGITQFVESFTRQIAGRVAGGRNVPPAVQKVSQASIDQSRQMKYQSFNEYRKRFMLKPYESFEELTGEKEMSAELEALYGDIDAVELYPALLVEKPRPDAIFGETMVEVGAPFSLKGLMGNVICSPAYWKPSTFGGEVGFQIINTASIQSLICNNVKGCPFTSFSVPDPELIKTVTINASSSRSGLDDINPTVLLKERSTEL

[2] = biological target: Prostaglandin G/H synthase 1 (Homo sapiens, UniProt P23219); format: tissue-based, Blood
Sequence of Prostaglandin G/H synthase 1 (P23219 whole entry): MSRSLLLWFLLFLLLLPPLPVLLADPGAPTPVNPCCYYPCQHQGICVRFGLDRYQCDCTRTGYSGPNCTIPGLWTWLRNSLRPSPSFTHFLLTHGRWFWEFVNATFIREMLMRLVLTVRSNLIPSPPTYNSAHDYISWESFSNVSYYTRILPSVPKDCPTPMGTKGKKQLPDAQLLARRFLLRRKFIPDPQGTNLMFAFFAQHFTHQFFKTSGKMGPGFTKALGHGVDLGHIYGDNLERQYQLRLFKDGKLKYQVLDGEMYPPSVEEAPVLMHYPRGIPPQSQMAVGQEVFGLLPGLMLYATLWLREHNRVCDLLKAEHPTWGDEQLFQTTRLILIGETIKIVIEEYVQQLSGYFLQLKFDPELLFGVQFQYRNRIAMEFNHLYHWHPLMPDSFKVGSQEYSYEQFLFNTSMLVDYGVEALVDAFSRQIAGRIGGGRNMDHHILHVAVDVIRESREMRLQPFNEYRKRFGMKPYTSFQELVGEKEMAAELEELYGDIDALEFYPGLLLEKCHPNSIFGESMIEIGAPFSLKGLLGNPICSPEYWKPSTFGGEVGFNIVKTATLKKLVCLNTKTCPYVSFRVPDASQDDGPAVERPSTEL
Description: Inhibition of COX1 in human whole blood assessed as effect on A-23187-stimulated TxB2 production

Row | Structure (SMILES) | pIC50 [1] | pIC50 [2]
1 | COC(=O)c1ccc(/N=C/c2ccc(S(N)(=O)=O)cc2)cc1 | 5.43 | 4.25
2 | NS(=O)(=O)c1ccc(/N=C/c2ccc([N+](=O)[O-])cc2)cc1 | 5.52 | 3.85
3 | COc1ccc(/N=C/c2ccc(S(N)(=O)=O)cc2)cc1 | 5.38 | 4.22
4 | COc1ccc(/C=N/c2ccc(S(N)(=O)=O)cc2)cc1O | 5.46 | 4.36
5 | COc1cc(/C=N/c2ccc(S(N)(=O)=O)cc2)cc(OC)c1O | 5.57 | 3.81
6 | NS(=O)(=O)c1ccc(/N=C/c2cccc(O)c2)cc1 | 5.56 | 4.42
7 | NS(=O)(=O)c1ccc(/N=C/c2ccc(C(F)(F)F)cc2)cc1 | 5.34 | 3.74
8 | CCOc1cc(/C=N/c2ccc(S(N)(=O)=O)cc2)ccc1O | 5.43 | 4.32
9 | NS(=O)(=O)c1ccc(/N=C/c2ccc(O)c(O)c2)cc1 | 5.55 | 4.64
10 | COc1cc(/C=N/c2ccc(S(N)(=O)=O)cc2)ccc1O | 5.53 | 4.11
11 | NS(=O)(=O)c1ccc(/N=C/c2ccc(O)cc2)cc1 | 5.47 | 3.83
12 | CN(C)c1ccc(/C=N/c2ccc(S(N)(=O)=O)cc2)cc1 | 5.47 | 3.71
13 | COc1ccc(/N=C/c2ccc(S(N)(=O)=O)cc2)cc1OC | 5.37 | 4.50
14 | COc1cc(/C=N/c2ccc(S(N)(=O)=O)cc2)cc(OC)c1 | 5.47 | 3.96
15 | NS(=O)(=O)c1ccc(/C=N/c2ccc(C(F)(F)F)cc2)cc1 | 5.18 | 4.36
16 | COc1ccc(/C=N/c2ccc(S(N)(=O)=O)cc2)cc1OC | 5.51 | 3.96

Row | Structure (SMILES) | pIC50 [1] | pIC50 [2]
17 | COc1ccc(/C=N/c2ccc(S(N)(=O)=O)cc2)cc1 | 5.01 | 3.50
18 | COc1cccc(/C=N/c2ccc(S(N)(=O)=O)cc2)c1 | 5.26 | 3.42
19 | Cc1ccc(/N=C/c2ccc(S(N)(=O)=O)cc2)cc1 | 5.34 | 4.20
20 | NS(=O)(=O)c1ccc(/C=N/c2ccc(F)cc2)cc1 | 5.36 | 4.10
21 | NS(=O)(=O)c1ccc(/C=N/c2ccc(O)cc2)cc1 | 5.29 | 4.29
22 | COc1cc(/C=N/c2ccc(S(N)(=O)=O)cc2)cc(OC)c1OC | 5.53 | 3.78
23 | NS(=O)(=O)c1ccc(/N=C/c2cccc([N+](=O)[O-])c2)cc1 | 5.17 | 3.98
24 | NS(=O)(=O)c1ccc(/N=C/c2ccc(O)c(C(=O)O)c2)cc1 | 6.13 | 4.07
25 | COC(=O)c1ccc(/C=N/c2ccc(S(N)(=O)=O)cc2)cc1 | 5.56 | 3.74
26 | NS(=O)(=O)c1ccc(/C=N/c2ccccc2)cc1 | 5.51 | 4.20
27 | NS(=O)(=O)c1ccc(/N=C/c2ccccc2)cc1 | 5.54 | 3.97
28 | CN(C)c1ccc(/N=C/c2ccc(S(N)(=O)=O)cc2)cc1 | 5.71 | 4.19
29 | NS(=O)(=O)c1ccc(/N=C/c2ccc(F)cc2)cc1 | 5.65 | 3.80
30 | Cc1ccc(/C=N/c2ccc(S(N)(=O)=O)cc2)cc1 | 5.31 | 3.72
31 | COC(=O)c1cc(/N=C/c2ccc(S(N)(=O)=O)cc2)ccc1O | 5.50 | 4.62
